These results are taken from patent US11806359B2 (priority 2020, dated 2023).

In brackets after ≈: the same amount, converted by molar mass. Some results are limits rather than exact numbers.

The subject of data set [1] is HIV-1. The conditions noted are these: Singh et al. 2013; cited from earlier work.
Data set [2] can be described thus: In vitro cellular assay for release of lactate dehydrogenase. Format: cell-based. The procedure:
Proof of the safety of the oleandrin-containing composition was further provided by in vitro cellular assay for determining the release of lactate dehydrogenase after exposure of said cells to solutions containing different concentrations of oleandrin. It was determined that up to concentrations of 1 microg/mL, there was no additional toxicity over control vehicle.

The subject of data set [3] is SARS-CoV-2. Briefly: SARS-CoV-2 viral titer and infectivity of progeny virions in Vero cells (Example 28). Format: cell-based. To be noted: for reduction in virus load: oleandrin pretreatment. As to the method: Further proof of the efficacy of oleandrin (oleandrin-containing composition) against coronavirus, e.g. SARS-CoV-2 (COVID-19), was obtained through in vitro evaluation according to Example 28, wherein Vero cells were pretreated with oleandrin and then infected with SARS-CoV-2. Following infection of the cells, the extracellular virus and oleandrin was washed away, and the infected cells were then treated with oleandrin (FIG. 23A: 1 microg/mL in 0.1% v/v aqueous DMSO; FIG. 23C: 0.1 microg/mL in 0.01% v/v aqueous DMSO) or just aqueous DMSO as control vehicle (FIG. 23B: 0.1% v/v aqueous DMSO; FIG. 23D: 0.01% v/v aqueous DMSO). […] The results further indicate that oleandrin inhibits infectivity of progeny virus by a) about 1 log10 without continuous drug treatment; and b) about >3 log10 with continuous drug treatments (without toxicity).
A stock solution of oleandrin in methanol (10 mg oleandrin/mL) was prepared. The stock solution was used to prepare incubation media containing DMSO (0.1% or 0.01% v/v in aqueous culture medium RPMI 1640 and oleandrin (20 microg/mL, 10 microg/mL, 1.0 microg/mL, or 0.1 microg/mL). The incubation solutions are as follows.
Uninfected Vero cells (target initial cell count 1×10^6) in culture were incubated in each of the indicated incubation media in vials for 30 min at 37° C. A viral inoculate of SARS-CoV-2 was then added to each vial to achieve a target initial viral titer (about PFU/mL 1×10^4). The target MOI (multiplicity of infection) of about 0.1. The solutions were incubated for an additional 2 h at 37° C. to achieve infection of the Vero cells. The infected Vero cells were then washed with control vehicle to remove extracellular virus and oleandrin. New aliquots of each incubation medium were added to each respective vial of infected Vero cells. Those receiving oleandrin in the second aliquot were denoted as “+ treatment Post-infection”, and those not receiving oleandrin in the second aliquot were denoted as “− treatment Post-infection” (FIGS. 23A-23D). The viral titer for each vial was determined at about 24 h and about 48 h after infection.
The data acquired included quantity of virus produced, infectivity of progeny virus, and relative safety (nontoxicity) of oleandrin in infected and uninfected cells.

For data set [4], the system named is HTLV-1. Briefly: HTLV-1 replication and p19Gag particle release from SLB1 cells, Anti-HTLV-1 p19Gag ELISA. Format: cell-based, human T-cell leukemia virus type-1. To be noted: SLB1 cells, 10, 50, 100 μg/ml, 72 hrs.
Data set [5] has as its system HTLV-1. Nature of the data set: HTLV-1 transmission in SLB1/huPBMC co-culture, p19Gag ELISA (Example 22). Format: cell-based, human T-cell leukemia virus type-1. To be noted: 15 min or 3 hrs pre-treatment, 72 hrs co-culture.
The subject of another data set is Marburgvirus (MARV/Ci67). Format: cell-based. To be noted: based on the oleandrin content; final concentration of compositions 20 microg/mL.
The test system of data set [6] is HTLV-1. Briefly: Infectivity of HTLV-1 particles from treated SLB1 cells on primary huPBMCs, p19Gag ELISA. The format is cell-based, human T-cell leukemia virus type-1. The conditions noted are these: even the lowest concentration (10 μg/ml); relative to vehicle control.
Another data set has as its system Ebolavirus (EBOV/Kik). The format is cell-based. The conditions noted are these: based on the oleandrin content; final concentration of compositions 20 microg/mL.
In another data set the test system is huPBMCs. Nature of the data set: Cytotoxicity/apoptosis in primary huPBMCs, Annexin V-FITC/PI staining. Format: cell-based, human. The conditions noted are these: compared to the vehicle control, 72 hrs. The procedure:
Primary buffy-coat huPBMCs were isolated and stimulated with phytohemagglutinin (PHA) and cultured in the presence of recombinant human interleukin-2 (hIL-2). The cells were then treated for 72 hrs with increasing concentrations of oleandrin or a N. oleander extract, or with increasing volumes of the Vehicle. The samples were subsequently stained with Annexin V-FITC and PI and the relative percentages of apoptotic (i.e., Annexin V-FITC and/or PI-positive) cells per field were quantified by confocal fluorescence-microscopy and counting in-triplicate.
Cytotoxic effects of the Vehicle control, N. oleander extract, and the oleandrin compound were assessed by treating primary huPBMCs for 72 hrs, and then the cultures were stained with Annexin V-FITC and PI. The relative percentages of apoptotic (i.e., Annexin V-FITC and/or PI-positive) cells were quantified by fluorescence-microscopy and counting triplicate visual fields using a 20× objective lens. The total numbers of cells were determined using DIC phase-contrast microscopy. Cyclophosphamide (50 μM)-treated cells were included as a positive control for apoptosis. NA indicates the number of cells in this sample was too low for accurate assessment due to higher toxicity. […]

Data set [7] concerns HIV-1. To be noted: cited from earlier work.
For data set [8], the system named is SARS-CoV-2. Nature of the data set: microbe, parasite or virus in culture. Format: cell-based.

For `CO[C@H]1C[C@H](O[C@H]2CC[C@@]3(C)[C@H](CC[C@@H]4[C@@H]3CC[C@]3(C)[C@@H](C5=CC(=O)OC5)[C@@H](OC(C)=O)C[C@]43O)C2)O[C@@H](C)[C@@H]1O` [oleandrin], the “HIV-1 viral infectivity in vitro” value in the data set on HIV-1 [1] is “inhibit viral infectivity in vitro”. Further, in data set [2], the “concentration up to which no additional toxicity over control vehicle” value is at most 1000 ng/mL. In addition, the “reduction of initial viral infection” value in the data set with SARS-CoV-2 [3] (just 30 min preincubation of Vero cells) is listed as “only slightly effective”. Moreover, the “reduction in virus load” value in the data set on SARS-CoV-2 [3] (24-h time) was 1368 fold. Also, in the data set with SARS-CoV-2 [3] (48-h time point), the “reduction in virus load” value was 369 fold. In the data set with SARS-CoV-2 [3] (with continuous drug treatments (without toxicity)), the “inhibition of infectivity of progeny virus” value is over 3 log10. Further, the “inhibition of infectivity of progeny virus” value with SARS-CoV-2 [3] (without continuous drug treatment) is recorded as “about 1 log10”. Further, the “HTLV-1 replication or release of p19Gag-containing virus particles” value with HTLV-1 [4] is “does not significantly inhibit”. Further, in the data set with VERO CCL-81 cells, the cellular toxicity result is “no cellular toxicity was observed”. Also, the “transmission of HTLV-1 in co-culture” value with HTLV-1 [5] is listed as “inhibited the transmission of HTLV-1”. Moreover, the “efficacy against Marburgvirus” value with Marburgvirus (MARV/Ci67) is “efficacious”. In addition, the “infectivity of newly-synthesized p19Gag-containing virus particles” value with HTLV-1 [6] was “inhibited the infectivity”. Also, the “efficacy against Ebolavirus” value with Ebolavirus (EBOV/Kik) is listed as “efficacious”. Moreover, the “cytotoxicity in huPBMCs” value in the data set with huPBMCs is given as “moderate cytotoxicity”. Besides, the “anti-viral activity against HIV-1” value in the data set with HIV-1 [7] is “anti-HIV activity”. In the data set on SARS-CoV-2 [8], the “concentrations with substantial antiviral activity” value was “above 0.01 microg/mL”, the effect on titer entry is reported as “significant reduction in titer”, the “effect on titer compared to DMSO control” value is recorded as “no significant effect” and the viral titer entry was “substantial reduction in viral titer”. In the data set with SARS-CoV-2 [8], the “viral titer at the two higher doses” value is on record as “essentially to or below the limit of detection”. In the data set with SARS-CoV-2 [8] (Severe acute respiratory syndrome coronavirus 2, 24 h), the EC50 worked out at 12 ng/mL (≈ 0.0208 µM). Moreover, the EC50 in the data set on SARS-CoV-2 [8] (Severe acute respiratory syndrome coronavirus 2, 48 h) came out at 7.07 ng/mL (≈ 0.0123 µM).

The EC50 is the concentration giving half of the maximal effect. A lower EC50 goes with greater potency.
